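Five concentrations, 48 hours, 96-well plates. GI50 is the concentration that inhibits growth by half.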 The source made the active and inactive calls. Cut-off read from the data, not from the text of the source: active = GI50 up to about 1.1 µM and inactive = higher.
Experiments:
Test in all cases: NCI tumour cell line growth inhibition, 48 h
[1] = tested on: SF-539
[2] = tested on: HOP-92
[3] = tested on: SK-MEL-2
[4] = tested on: Malme-3M
[5] = tested on: HCT-116
[6] = tested on: MDA-N
[7] = tested on: DU-145
[8] = tested on: SW-620
[9] = tested on: SN12C
[10] = tested on: NCI-H23
[11] = tested on: MOLT-4
[12] = tested on: 786-0
[13] = tested on: MCF7
[14] = tested on: A549
[15] = tested on: K562
[16] = tested on: NCI-H226
[17] = tested on: M14
[18] = tested on: OVCAR-3
[19] = tested on: SK-MEL-5

Structure (SMILES)	GI50 [1]	GI50 [2]	GI50 [3]	GI50 [4]	GI50 [5]	GI50 [6]	GI50 [7]	GI50 [8]	GI50 [9]	GI50 [10]	GI50 [11]	GI50 [12]	GI50 [13]	GI50 [14]	GI50 [15]	GI50 [16]	GI50 [17]	GI50 [18]	GI50 [19]
CN(C)c1cccc(F)c1C(=O)NC(=O)Nc1ccc(Cl)cc1	3.15 µM (inactive)	27.4 µM (inactive)	2.29 µM (inactive)	1.76 µM (inactive)	1.77 µM (inactive)	0.142 µM (active)	4.03 µM (inactive)	1.24 µM (inactive)	8.83 µM (inactive)	6.34 µM (inactive)	1.62 µM (inactive)	2.98 µM (inactive)	2.17 µM (inactive)	5.48 µM (inactive)	0.479 µM (active)	5.5 µM (inactive)	1.93 µM (inactive)	2.09 µM (inactive)	3.33 µM (inactive)
Cc1ccccc1-n1c(=O)c2ncn(C3CCCO3)c2n(-c2ccccc2C)c1=S (configuration not stated)	> 100 µM (inactive)	> 100 µM (inactive)	> 100 µM (inactive)	> 100 µM (inactive)	> 100 µM (inactive)	> 100 µM (inactive)	> 100 µM (inactive)	> 100 µM (inactive)	> 100 µM (inactive)	> 100 µM (inactive)	> 100 µM (inactive)	> 100 µM (inactive)	> 100 µM (inactive)	> 100 µM (inactive)	> 100 µM (inactive)	> 100 µM (inactive)	> 100 µM (inactive)	> 100 µM (inactive)	> 100 µM (inactive)
COc1ccc([C@H]2C=C(c3cc(F)c(Cl)cc3Cl)N=c3s/c(=C\c4ccc(-c5ccc(Cl)cc5Cl)o4)c(=O)n32)cc1	34.6 µM (inactive)	31.6 µM (inactive)	20.1 µM (inactive)	99.1 µM (inactive)	35.1 µM (inactive)	28.1 µM (inactive)	71 µM (inactive)	51.1 µM (inactive)	47.8 µM (inactive)	38.9 µM (inactive)	31.9 µM (inactive)	42.4 µM (inactive)	26.9 µM (inactive)	> 100 µM (inactive)	38.8 µM (inactive)	24.6 µM (inactive)	55.3 µM (inactive)		36.6 µM (inactive)
COc1ccc(NC(=O)CC(=O)NN)cc1	> 100 µM (inactive)	64 µM (inactive)	> 100 µM (inactive)	> 100 µM (inactive)	> 100 µM (inactive)	> 100 µM (inactive)	> 100 µM (inactive)	> 100 µM (inactive)	> 100 µM (inactive)	> 100 µM (inactive)	> 100 µM (inactive)	> 100 µM (inactive)	> 100 µM (inactive)	> 100 µM (inactive)	> 100 µM (inactive)	> 100 µM (inactive)		> 100 µM (inactive)	> 100 µM (inactive)
CCOC(=O)CNC(=O)C(CSCC1C(=O)Nc2ccccc21)NC(=O)CCC(N)C(=O)OCC (configuration not stated)	0.247 µM (active)	1.25 µM (inactive)	1.87 µM (inactive)	1.88 µM (inactive)	0.551 µM (active)	1.79 µM (inactive)	3.75 µM (inactive)	1.19 µM (inactive)	1.52 µM (inactive)	2.26 µM (inactive)		1.63 µM (inactive)	1.07 µM (active)	2.34 µM (inactive)	0.242 µM (active)	1.93 µM (inactive)	1.84 µM (inactive)	2.01 µM (inactive)	1.6 µM (inactive)
C#CCn1c(=O)c(Cl)cn(/C(=C/C(=O)OCC)C(=O)OCC)c1=O	6.11 µM (inactive)	9.77 µM (inactive)	17.4 µM (inactive)	3.86 µM (inactive)	4.69 µM (inactive)	15.3 µM (inactive)	18.6 µM (inactive)	2.22 µM (inactive)	22.4 µM (inactive)	18.5 µM (inactive)	2.28 µM (inactive)	1.98 µM (inactive)	8.45 µM (inactive)	25 µM (inactive)	1.7 µM (inactive)	> 43.1 µM (inactive)	6.98 µM (inactive)	3.48 µM (inactive)	16.9 µM (inactive)
COc1cccc(C(=O)C(O)c2cccc(OC)c2OC)c1OC (configuration not stated)	> 100 µM (inactive)	> 100 µM (inactive)	> 100 µM (inactive)	> 100 µM (inactive)	> 100 µM (inactive)	> 100 µM (inactive)	> 100 µM (inactive)	> 100 µM (inactive)	> 100 µM (inactive)	> 100 µM (inactive)	> 100 µM (inactive)	> 100 µM (inactive)	> 100 µM (inactive)	> 100 µM (inactive)		> 100 µM (inactive)	> 100 µM (inactive)	> 100 µM (inactive)	> 100 µM (inactive)
CO/N=C(/C(=O)OC)c1ccccc1COc1ccccc1C(F)(F)F	20.3 µM (inactive)	30.2 µM (inactive)	20.8 µM (inactive)	11.6 µM (inactive)	25.1 µM (inactive)	28.1 µM (inactive)	37 µM (inactive)		61.8 µM (inactive)	22.1 µM (inactive)	15.1 µM (inactive)	43.6 µM (inactive)	39.4 µM (inactive)	21.7 µM (inactive)	19.6 µM (inactive)	68.4 µM (inactive)	26.9 µM (inactive)	23.8 µM (inactive)	6.22 µM (inactive)
O=P12N(CCN1c1ccccc1)CCN2c1ccccc1	> 100 µM (inactive)	80.7 µM (inactive)	> 100 µM (inactive)	> 100 µM (inactive)	> 100 µM (inactive)	> 100 µM (inactive)	> 100 µM (inactive)	> 100 µM (inactive)	> 100 µM (inactive)	> 100 µM (inactive)	> 100 µM (inactive)	> 100 µM (inactive)	> 100 µM (inactive)	> 100 µM (inactive)	> 100 µM (inactive)	> 100 µM (inactive)	66.8 µM (inactive)	> 100 µM (inactive)	> 100 µM (inactive)
CN(C)CC1CCCc2ccccc2C1=O (configuration not stated)	4.79 µM (inactive)	16 µM (inactive)	2.02 µM (inactive)	1.77 µM (inactive)	1.85 µM (inactive)	1.58 µM (inactive)	6.1 µM (inactive)	0.54 µM (active)	7.4 µM (inactive)	6.41 µM (inactive)	0.269 µM (active)	1.47 µM (inactive)	0.231 µM (active)	20.3 µM (inactive)	0.323 µM (active)	21.8 µM (inactive)	1.85 µM (inactive)	1.82 µM (inactive)	4.4 µM (inactive)
O=C(Nc1ccccc1)c1cc(S(=O)(=O)N2CCNNC2=O)c(S)cc1Cl	> 100 µM (inactive)	47.3 µM (inactive)	> 100 µM (inactive)	56.1 µM (inactive)	40.1 µM (inactive)	> 100 µM (inactive)	90.4 µM (inactive)	33 µM (inactive)	> 100 µM (inactive)		71.6 µM (inactive)	47.6 µM (inactive)	> 100 µM (inactive)	> 100 µM (inactive)	84.9 µM (inactive)	> 100 µM (inactive)	> 100 µM (inactive)	> 100 µM (inactive)	> 100 µM (inactive)
O=c1[nH]c2c(c(=O)[nH]1)SC(c1ccccc1)C2 (configuration not stated)	> 100 µM (inactive)	> 100 µM (inactive)	93.8 µM (inactive)	> 100 µM (inactive)	> 100 µM (inactive)	> 100 µM (inactive)	> 100 µM (inactive)	> 100 µM (inactive)		> 100 µM (inactive)	> 100 µM (inactive)	> 100 µM (inactive)	94 µM (inactive)	> 100 µM (inactive)	> 100 µM (inactive)	> 100 µM (inactive)	> 100 µM (inactive)	> 100 µM (inactive)	> 100 µM (inactive)
Nc1c(S(=O)(=O)O)cc(Nc2cccc(S(=O)(=O)/C=C/S(=O)(=O)O)c2)c2c1C(=O)c1ccccc1C2=O	> 100 µM (inactive)	> 100 µM (inactive)	> 100 µM (inactive)	> 100 µM (inactive)	> 100 µM (inactive)	> 100 µM (inactive)	> 100 µM (inactive)	> 100 µM (inactive)	> 100 µM (inactive)	> 100 µM (inactive)	> 100 µM (inactive)	> 100 µM (inactive)	> 100 µM (inactive)	> 100 µM (inactive)	> 100 µM (inactive)	> 100 µM (inactive)	> 100 µM (inactive)	> 100 µM (inactive)	> 100 µM (inactive)
C=C1C(NC)CCC23CC24CCC2(C)C(C(C)=O)C(O)CC2(C)C4CCC13 (configuration not stated)	59 µM (inactive)	> 100 µM (inactive)	> 100 µM (inactive)	> 100 µM (inactive)	70.3 µM (inactive)	63.7 µM (inactive)	> 100 µM (inactive)	> 100 µM (inactive)	20.4 µM (inactive)	> 100 µM (inactive)	> 100 µM (inactive)	80.5 µM (inactive)	70.5 µM (inactive)	> 100 µM (inactive)	71.3 µM (inactive)	> 100 µM (inactive)	> 100 µM (inactive)	> 100 µM (inactive)	> 100 µM (inactive)
NC(Cn1ccc(=O)c(O)c1)C(=O)O (configuration not stated) [MIMOSINE]	> 100 µM (inactive)	> 100 µM (inactive)	> 100 µM (inactive)	54.8 µM (inactive)	> 100 µM (inactive)	> 100 µM (inactive)	> 100 µM (inactive)	> 100 µM (inactive)	> 100 µM (inactive)	> 100 µM (inactive)	72.6 µM (inactive)	> 100 µM (inactive)	> 100 µM (inactive)	> 100 µM (inactive)		> 100 µM (inactive)	> 100 µM (inactive)	> 100 µM (inactive)	> 100 µM (inactive)

— ChEMBL document CHEMBL1201862, “PubChem BioAssay data set” (2004)
